Data taken from patent US20060263895A1, “Method for monitoring the stereoselectivity and relative rate of organic chemical reactions” (priority 2005, published 2006).

Assays:
[1] = Double cuvette-ISES (in situ enzymatic screening) of Co(III)-salen mediated HKR of (±)-propylene oxide; details: for % ee of the 1,2-propanediol product, as predicted by double-cuvette ISES (upper number): bilayer of pH 8.6 buffer over 7.2 M epoxide in CHCl3, 0.25 mol % catalyst, 15-35 min, + = (S), − = (R)
Procedure: Aqueous reporting layers. containing TBADH/NADP+ (cuvette 1) and HLADH/NAD+ (cuvette 2), respectively, are then added. The increase in absorbance at 340 nm can be followed for several such sets in parallel by UV-vis spectrophotometry. The kinetic data are then used to make the double-cuvette ISES predictions.
A general procedure for double cuvette-ISES to estimate both enantioselectivities and relative rates for an array of catalysts being screened in parallel is presented below. The hydrolytic kinetic resolution (HKR) of (±) propylene oxide was chosen as model reaction.
Typically, quartz cuvettes with one cm light paths and with nominal one mL volumes were used. For each catalyst, a two cuvette screen was performed, with cuvette A containing HLADH, as (S)-propanediol-selective reporting enzyme, and cuvette B containing TBADH, as a (R)-propanediol-selective reporting enzyme. For each cuvette, the final volume was 800 μL (300 μL of organic layer; 500 μL of aqueous layer).
Both cuvettes A and B had the following composition: 150 μL (2.15 mmol) of (±)-propylene oxide (7.2 M in organic layer), 150 μL of CHCl3 and 0.25 mol % Co(III)-salen catalyst. The total organic layer volume was maintained as 300 μL in all catalyst screens.
(i) Cuvette A: 0.35 U HLADH (17.6 μL from a stock solution (0.02U/μL)), 7.2 mM β-NAD+(16.5 μL from a 220 mM stock) and 465.8 μL of 50 mM sodium pyrophosphate buffer, pH 8.8. The final pH was 8.6.
(ii) Cuvette B: 0.35 U TBADH (15.8 μL from a stock solution (0.022U/μL)) of, 2.2 mM β-NADP+ (5 μL from a 220 mM stock) and 479.5 μL of 50 mM sodium pyrophosphate buffer, pH 8.8. The final pH was 8.6. The total volume of the aqueous layer was maintained as 500 μL in both cuvettes in all ISES experiments.
C. Step by Step Protocol: A catalyst stock solution (22 μmol of catalyst in 620 μL CHCl3) was made up in a 1.5 ml microcentrifuge tube, and stored on ice, along with a stock of (±)-propylene oxide, in a separate tube. The organic layers were prepared by briefly vortexing 150 μL (5.4 μmol, 0.25 mol %) of the catalyst stock in CHCl3 with 150 μL (2.15 mmol) of (±)-propylene oxide in iced microcentrifuge tubes. These were loaded into 1 mL quartz cuvettes using precooled (refrigerator), disposable 1 mL syringes. The aqueous layers were then layered on top of the organic layers, by syringe, down the walls of the cuvette.

[2] = HKR of (±)-propylene oxide under standard neat 'Jacobsen conditions' (NMR conversion, chiral HPLC ee); details: for NMR conv. (time) / % ee (HPLC): loading 0.25 mol %; for % ee of the 1,2-propanediol product, as observed by chiral HPLC (lower number): neat propylene oxide, 0.55 equiv. H2O, 0.25 mol % catalyst, 3 h reaction time
Procedure: Salens in the fully synthetic, 42 member focused library that led to catalysts with appreciable activity, as indicated by double cuvette-ISES, were also evaluated ‘outside of the cuvette,’ under conditions more typically employed in HKR reactions. Specifically, these Co(III)-salen catalysts were evaluated in the HKR of (±)-propylene oxide, under neat conditions, similar to those described by Jacobsen and coworkers. Reactions were arbitrarily stopped after 3 hours, to obtain the enantiopurity of the 1,2-propanediol product at relatively early reaction times, for comparison with ISES predictions.
A typical procedure follows: To the Co(III)-salen catalyst derived from 7e (5.4 mg, 5.4 μmol, 0.25 mol %) and (±)-propylene oxide (125 mg, 2.15 mmol) at 0° C., was added water (21 μL, 1.18 mmol, 0.55 equiv.). The reaction mixture was securely capped, and allowed to warm to room temperature and stirred, most commonly for a total of 3 hours. Percent conversion at 3 hours was evaluated by 1H NMR of an aliquot (cooled to 0° C. for the transfer), in CDCl3. In most of these cases, the conversion was low enough after 3 hours, that the unreacted epoxide (bp 32° C.) was of relatively low ee, and was therefore removed by evaporation under aspirator vacuum. When the conversion was less than 5% by NMR after 3 hours, reactions were continued for longer times.
Upon termination of the reaction, the diol product was isolated by Kugelrohr distillation (˜120° C.-oven temp; 0.1 torr). To determine ee, the isolated diol was derivatized using p-bromobenzoyl imidazole (2.2 equiv.) in THF in the presence of NaH (4 equiv.) at room temperature for 5 min. The bis(p-bromobenzoate) esters obtained following sequential washes with 1 N HCl and saturated sodium bicarbonate, were of sufficient purity to be used directly for chiral HPLC analysis (Chiralcel OD, 99% […]). [drawing 23] [drawing 24] [drawing 25] [drawing 26] [drawing 27]

[3] = reaction stopped at the time given (mostly 3 h), + = (S), − = (R)

Molecule: Oc1ccc2ccccc2c1C=NC[C@@H](N=Cc1c(O)ccc2ccccc12)c1ccccc1 [Salen 2c, N,N′-Bis(2′-hydroxy-1′-naphthylidene)-(1S)-phenyl-1,2-ethylenediamine]
- ISES signal ([1]; over 35 min): § (These catalysts gave ISES signals <20 mAbs min−1 over 35 min.)

Molecule: Oc1c(C=NC[C@@H](N=Cc2ccc3ccccc3c2O)c2ccccc2)ccc2ccccc12 [Salen 2d, N,N′-Bis(1′-hydroxy-2′-naphthylidene)-(1S)-phenyl-1,2-ethylenediamine]
- NMR conv. (time) ([2]; 22 h): 19 (22 h) %
- % ee (HPLC) [2, 3]: −54 (R) % ee
- % ee of the 1,2-propanediol product, as observed by chiral HPLC (lower number) ([2]; + = (S), − = (R)): −54 % ee
- % ee of the 1,2-propanediol product, as predicted by double-cuvette ISES (upper number) [1]: −15 % ee

Molecule: Oc1c(I)cc(I)cc1C=NC[C@@H](N=Cc1cc(I)cc(I)c1O)c1ccccc1 [Salen 2e, N,N′-Bis(3′,5′-diiodosalicylidene)-(1S)-phenyl-1,2-ethylenediamine]
- NMR conv. (time) ([2]; 3 h): 26 (3 h) %
- % ee (HPLC) [2, 3]: −41 (R) % ee
- % ee of the 1,2-propanediol product, as observed by chiral HPLC (lower number) ([2]; + = (S), − = (R)): −41 % ee
- % ee of the 1,2-propanediol product, as predicted by double-cuvette ISES (upper number) [1]: +4 % ee

Molecule: Oc1cc(OCc2ccccc2)ccc1C=NC[C@@H](N=Cc1ccc(OCc2ccccc2)cc1O)c1ccccc1 [Salen 2f, N,N′-Bis(4′-benzyloxysalicylidene)-(1S)-phenyl-1,2-ethylenediamine]
- ISES signal ([1]; over 35 min): § (These catalysts gave ISES signals <20 mAbs min−1 over 35 min.)

Molecule: CC1(C)CCN2CCC(C)(C)c3c(O)c(C=NC[C@@H](N=Cc4cc5c6c(c4O)C(C)(C)CCN6CCC5(C)C)c4ccccc4)cc1c32 [Salen 2g, N,N′-Bis(8′-hydroxy-1′,1′,7′,7′-tetramethyljulolidinyl-9′-methylidene)-(1S)-phenyl-1,2-ethylenediamine]
- % ee (HPLC) ([2]; @3 h): −71@3 h, % ee
- % ee (HPLC) ([2]; @20 h): −65@20 h (R) % ee
- % ee of the 1,2-propanediol product, as observed by chiral HPLC (lower number) ([2]; + = (S), − = (R)): −71 % ee
- % ee of the 1,2-propanediol product, as predicted by double-cuvette ISES (upper number) [1]: −41 % ee
- ISES rate in the HLADH cuvette ([1]; over 35 min): 14.9 mAbs min−1

Molecule: CC(C)(C)c1cc(C=NC[C@H](Cc2ccccc2)N=Cc2cc(C(C)(C)C)cc(C(C)(C)C)c2O)c(O)c(C(C)(C)C)c1 [Salen 3a, N,N′-Bis(3′,5′-di-tert-butylsalicylidene)-(1S)-benzyl-1,2-ethylenediamine]
- NMR conv. (time) ([2]; 3 h): 46 (3 h) %
- % ee (HPLC) [2, 3]: +55 (S) % ee
- % ee of the 1,2-propanediol product, as observed by chiral HPLC (lower number) ([2]; + = (S), − = (R)): +55 % ee
- % ee of the 1,2-propanediol product, as predicted by double-cuvette ISES (upper number) [1]: +48 % ee

Molecule: Oc1ccc2ccccc2c1C=NC[C@H](Cc1ccccc1)N=Cc1c(O)ccc2ccccc12 [Salen 3c, N,N′-Bis(2′-hydroxy-1′-naphthylidene)-(1S)-benzyl-1,2-ethylenediamine]
- NMR conv. (time) ([2]; time not given): none obs
- ISES signal ([1]; over 35 min): § (These catalysts gave ISES signals <20 mAbs min−1 over 35 min.)

Molecule: Oc1c(I)cc(I)cc1C=NC[C@H](Cc1ccccc1)N=Cc1cc(I)cc(I)c1O [Salen 3e, N,N′-Bis(3′,5′-diiodosalicylidene)-(1S)-benzyl-1,2-ethylenediamine]
- ISES signal ([1]; over 35 min): § (These catalysts gave ISES signals <20 mAbs min−1 over 35 min.)

Molecule: Oc1cc(OCc2ccccc2)ccc1C=NC[C@H](Cc1ccccc1)N=Cc1ccc(OCc2ccccc2)cc1O [Salen 3f, N,N′-Bis(4′-benzyloxysalicylidene)-(1S)-benzyl-1,2-ethylenediamine]
- ISES signal ([1]; over 35 min): § (These catalysts gave ISES signals <20 mAbs min−1 over 35 min.)

Molecule: Oc1ccc2ccccc2c1C=NC[C@H](Cc1cccc2ccccc12)N=Cc1c(O)ccc2ccccc12 [Salen 4c, N,N′-Bis(2′-hydroxy-1′-naphthylidene)-(1S)-(α-naphthylmethyl)-1,2-ethylenediamine]
- ISES signal ([1]; over 35 min): § (These catalysts gave ISES signals <20 mAbs min−1 over 35 min.)

Molecule: CC1(C)CCN2CCC(C)(C)c3c(O)c(C=NC[C@H](Cc4cccc5ccccc45)N=Cc4cc5c6c(c4O)C(C)(C)CCN6CCC5(C)C)cc1c32 [Salen 4g, N,N′-Bis(8′-hydroxy-1′,1′,7′,7′-tetramethyljulolidinyl-9′-methylidene)-(1S)-α-naphthylmethyl-1,2-ethylenediamine]
- ISES signal ([1]; over 35 min): § (These catalysts gave ISES signals <20 mAbs min−1 over 35 min.)

Molecule: Oc1ccc2ccccc2c1C=NC[C@H](Cc1ccc2ccccc2c1)N=Cc1c(O)ccc2ccccc12 [Salen 5c]
- ISES signal ([1]; over 35 min): § (These catalysts gave ISES signals <20 mAbs min−1 over 35 min.)

Molecule: Oc1cc(OCc2ccccc2)ccc1C=NC[C@H](Cc1ccc2ccccc2c1)N=Cc1ccc(OCc2ccccc2)cc1O [Salen 5f, N,N′-Bis(4′-benzyloxysalicylidene)-(1S)-(β-naphthylmethyl)-1,2-ethylenediamine]
- ISES signal ([1]; over 35 min): § (These catalysts gave ISES signals <20 mAbs min−1 over 35 min.)

Molecule: CC1(C)CCN2CCC(C)(C)c3c(O)c(C=NC[C@H](Cc4ccc5ccccc5c4)N=Cc4cc5c6c(c4O)C(C)(C)CCN6CCC5(C)C)cc1c32 [Salen 5g, N,N′-Bis(8′-hydroxy-1′,1′,7′,7′-tetramethyljulolidinyl-9′-methylidene)-(1S)-(β-naphthylmethyl)-1,2-ethylenediamine]
- ISES signal ([1]; over 35 min): § (These catalysts gave ISES signals <20 mAbs min−1 over 35 min.)

Molecule: CO[C@H]1[C@@H]2OC(C)(C)O[C@@H]2COC1(CN=Cc1c(O)ccc2ccccc12)N=Cc1c(O)ccc2ccccc12 (stereo partly shown) [Salen 6c, N,N′-Bis(2′-hydroxy-1′-naphthylidene)-3-O-methyl-4,5-O-isopropylidene-1,2-dideoxy-Dfructopyranosyl-1,2-diamine]
- ISES signal ([1]; over 35 min): § (These catalysts gave ISES signals <20 mAbs min−1 over 35 min.)

Molecule: COC1C2OC(C)(C)OC2COC1(CN=Cc1ccc2ccccc2c1O)N=Cc1ccc2ccccc2c1O (stereo not drawn) [Salen 7d, N,N′-Bis(1′-hydroxy-2′-naphthylidene)-3-O-methyl-4,5-O-isopropylidene-1,2-dideoxy-β-Dfructopyranosyl-1,2-diamine]
- ISES signal ([1]; over 35 min): § (These catalysts gave ISES signals <20 mAbs min−1 over 35 min.)

Molecule: COC1C2OC(C)(C)OC2COC1(CN=Cc1ccc(OCc2ccccc2)cc1O)N=Cc1ccc(OCc2ccccc2)cc1O (stereo not drawn) [Salen 7f, N,N′-Bis(4′-benzyloxysalicylidene)-3-O-methyl-4,5-O-isopropylidene-1,2-dideoxy-β-Dfructopyranosyl-1,2-diamine]
- ISES signal ([1]; over 35 min): § (These catalysts gave ISES signals <20 mAbs min−1 over 35 min.)

Molecule: N,N′-Bis(2′-hydroxy-1′-naphthylidene)-[1R-(1α,2α,5α)]-2-amino-7,7-dimethyl-2-bicyclo[3.3.1]heptane-ethanamine [Salen 1c]
- ISES signal ([1]; over 35 min): § (These catalysts gave ISES signals <20 mAbs min−1 over 35 min.)

Molecule: N,N′-Bis(4′-benzyloxysalicylidene)-[1R-(1α,2α,5α)]-2-amino-7,7-dimethyl-2-bicyclo[3.3.1]heptane-ethanamine [Salen 1f]
- ISES signal ([1]; over 35 min): § (These catalysts gave ISES signals <20 mAbs min−1 over 35 min.)

Molecule: N,N′-Bis(8′-hydroxy-1′,1′,7′,7′-tetramethyljulolidine-9′-methylidene)-[1R-(1α,2α,5α)]-2-amino-7,7-dimethyl-2-bicyclo[3.3.1]heptane-ethanamine [Salen 1g]
- ISES signal ([1]; over 35 min): § (These catalysts gave ISES signals <20 mAbs min−1 over 35 min.)
